Data reported in PMC6273978, “Synthesis and Pharmacological Evaluation of Novel Pleuromutilin Derivatives with Substituted Benzimidazole Moieties” (Molecules, 2016).
Values after ≈ are worked out from the molar mass of the structure shown.

Tests used:
[1] = test system: Escherichia coli (E. coli); assay: MIC testing, agar dilution method; assay type: cell-based; conditions: 36.5 °C, 24–48 h
Text: (§1) The synthesized pleuromutilin derivatives 3 and 4a–l, with tiamulin fumarate used a as reference drug, were screened for their in vitro antibacterial activity against Escherichia coli (E. coli), Staphylococcus aureus (S. aureus), Methicillin-resistant Staphylococcus aureus (MRSA), Staphylococcus vitulinus (S. vitulinus), Staphylococcus warneri (S. warneri), and Staphylococcus haemolyticus (S. haemolyticus). The antibacterial activities are reported in Table 1 as the minimum inhibitory concentration (MIC) using the agar dilution method. The MICs of the 13 new pleuromutilin derivatives in vitro against E. coli ranged from 10 to 80 μg/mL; against S. aureus, MRSA, S. vitulinus, S. warneri, and S. haemolyticus ranged from 0.156 to 40 μg/mL, respectively.
(§2) The MIC for the synthesized compounds (3 and 4a–l) and tiamulin fumarate used as a reference drug were determined using the agar dilution method according to the National Committee for Clinical Laboratory Standards (NCCLS). Tested compounds were dissolved in 25%–40% DMSO to a solution with a concentration of 1280 µg/mL, whereas tiamulin fumarate was directly dissolved in 10 mL of distilled water at the same concentration as the tested compounds. All the solutions were then diluted twofold with sterile water to provide 11 dilutions (final concentration is 0.625 µg/mL). A 2 mL volume of the 2-fold serial dilution of each test compound/drug was incorporated into 18 mL of hot Muellere-Hinton agar medium. Inoculums, including five Gram (+), S. aureus, MRSA, S. vitulinus, S. warneri, S. haemolyticus, and one Gram (−), E. coli were prepared from blood slants and adjusted to approximately 10^5–10^6 CFU/mL with sterile saline (0.90% NaCl). A 10 µL amount of bacterial suspension was spotted onto Muellere-Hinton agar plates containing serial dilutions of the compounds/drug. The plates were incubated at 36.5 °C for 24–48 h. The same procedure was repeated in triplicate.

[2] = test system: Staphylococcus haemolyticus (S. haemolyticus); assay: MIC testing, agar dilution method; assay type: cell-based; conditions: 36.5 °C, 24–48 h
Text: as §1, §2

[3] = test system: Staphylococcus vitulinus (S. vitulinus); assay: MIC testing, agar dilution method; assay type: cell-based; conditions: Mammaliicoccus vitulinus, 36.5 °C, 24–48 h
Text: as §1, §2

[4] = test system: Staphylococcus aureus (S. aureus); assay: MIC testing, agar dilution method; assay type: cell-based; conditions: 36.5 °C, 24–48 h
Text: as §1, §2

[5] = test system: Methicillin-resistant Staphylococcus aureus (MRSA); assay: MIC testing, agar dilution method; assay type: cell-based; conditions: 36.5 °C, 24–48 h
Text: as §1, §2

[6] = test system: Staphylococcus warneri (S. warneri); assay: MIC testing, agar dilution method; assay type: cell-based; conditions: 36.5 °C, 24–48 h
Text: as §1, §2

S. vitulinus = assay: Oxford cup assay, zone of inhibition; assay type: cell-based, Staphylococcus vitulinus; conditions: Mammaliicoccus vitulinus
Description: (§3) The Oxford cup assays were carried out to evaluate the antibacterial activities against the above-mentioned six bacterial strains. The zones of inhibition for two concentrations (320 and 160 μg/mL) of the synthetic compounds and tiamulin fumarate were measured. The results of Oxford cup assay correspond with that obtained by agar dilution method (MICs) as a whole.
(§4) The procedure for Oxford cup assays was the same as that previously reported. Briefly, inoculums were prepared in 0.9% saline using McFarland standard and spread uniformly on nutrient agar plates. The 320 and 160 µg/mL of all the tested compounds were added individually into the Oxford cups that were placed at equal distances above the agar surfaces. The zone of inhibition for each concentration was measured after a 24–36 h incubation at 37 °C. The same procedure was repeated in triplicate.

S. aureus = assay: Oxford cup assay, zone of inhibition; assay type: cell-based; conditions: Staphylococcus aureus
Description: as §3, §4

S. warneri = assay: Oxford cup assay, zone of inhibition; assay type: cell-based; conditions: Staphylococcus warneri
Description: as §3, §4

MRSA = assay: Oxford cup assay, zone of inhibition; assay type: cell-based; conditions: Staphylococcus aureus
Description: as §3, §4

E. coli = assay: Oxford cup assay, zone of inhibition; assay type: cell-based; conditions: Escherichia coli
Description: as §3, §4

S. haemolyticus = assay: Oxford cup assay, zone of inhibition; assay type: cell-based; conditions: Staphylococcus haemolyticus
Description: as §3, §4

| MIC [1] [µg/mL] | MIC [3] [µg/mL] | MIC [4] [µg/mL] | MIC [5] [µg/mL] | MIC [6] [µg/mL] | Compound | MIC [2] [µg/mL] | zone of inhibition at 160 µg/mL (S. vitulinus) [mm] | zone of inhibition at 320 µg/mL (S. vitulinus) [mm] | zone of inhibition at 160 µg/mL (S. aureus) [mm] | zone of inhibition at 320 µg/mL (S. aureus) [mm] | zone of inhibition at 160 µg/mL (S. warneri) [mm] | zone of inhibition at 320 µg/mL (S. warneri) [mm] | zone of inhibition at 160 µg/mL (MRSA) [mm] | zone of inhibition at 320 µg/mL (MRSA) [mm] | zone of inhibition at 160 µg/mL (E. coli) [mm] | zone of inhibition at 320 µg/mL (E. coli) [mm] | zone of inhibition at 160 µg/mL (S. haemolyticus) [mm] | zone of inhibition at 320 µg/mL (S. haemolyticus) [mm] |
| --- | --- | --- | --- | --- | --- | --- | --- | --- | --- | --- | --- | --- | --- | --- | --- | --- | --- | --- |
| 40 (≈ 60.2 µM) | 40 (≈ 60.2 µM) | 40 (≈ 60.2 µM) | 40 (≈ 60.2 µM) | 40 (≈ 60.2 µM) | C=C[C@]1(C)C[C@@H](OC(=O)CSc2nc3ccc(NC(=O)c4ccccc4Cl)cc3[nH]2)[C@]2(C)[C@H](C)CC[C@]3(CCC(=O)[C@H]32)[C@@H](C)[C@@H]1O [Compound 4a, 14-O-((2-Chlorobenzamide-5-aminobenzimidazole-2-yl)thioacetyl) mutilin] | 5 (≈ 7.53 µM) | 13.8 | 19.2 | 9.02 | 12.4 | 21.6 | 22.4 | 15.9 | 20.2 | 0 | 11.3 | 20.4 | 24.9 |
| 80 (≈ 120 µM) | 10 (≈ 15.1 µM) | 40 (≈ 60.2 µM) | 20 (≈ 30.1 µM) | 20 (≈ 30.1 µM) | C=C[C@]1(C)C[C@@H](OC(=O)CSc2nc3ccc(NC(=O)c4cccc(Cl)c4)cc3[nH]2)[C@]2(C)[C@H](C)CC[C@]3(CCC(=O)[C@H]32)[C@@H](C)[C@@H]1O [Compound 4b, 14-O-((3-Chlorobenzamide-5-aminobenzimidazole-2-yl)thioacetyl) mutilin] | 20 (≈ 30.1 µM) | 20.5 | 23.8 | 12.3 | 15.8 | 16.5 | 19.5 | 17.3 | 21.7 | 10.4 | 0 | 20.3 | 20.4 |
| 40 (≈ 60.2 µM) | 40 (≈ 60.2 µM) | 40 (≈ 60.2 µM) | 40 (≈ 60.2 µM) | 40 (≈ 60.2 µM) | C=C[C@]1(C)C[C@@H](OC(=O)CSc2nc3ccc(NC(=O)c4ccc(Cl)cc4)cc3[nH]2)[C@]2(C)[C@H](C)CC[C@]3(CCC(=O)[C@H]32)[C@@H](C)[C@@H]1O [Compound 4c, 14-O-((4-Chlorobenzamide-5-aminobenzimidazole-2-yl)thioacetyl) mutilin] | 40 (≈ 60.2 µM) | 20.5 | 21.8 | 14.3 | 16.5 | 19.2 | 22.2 | 14.6 | 15.5 | 17.2 | 17.7 | 16.9 | 20.9 |
| 80 (≈ 124 µM) | 40 (≈ 62.1 µM) | 10 (≈ 15.5 µM) | 40 (≈ 62.1 µM) | 40 (≈ 62.1 µM) | C=C[C@]1(C)C[C@@H](OC(=O)CSc2nc3ccc(NC(=O)c4ccccc4C)cc3[nH]2)[C@]2(C)[C@H](C)CC[C@]3(CCC(=O)[C@H]32)[C@@H](C)[C@@H]1O [Compound 4d, 14-O-((2-Methylbenzamide-5-aminobenzimidazole-2-yl)thioacetyl) mutilin] | 40 (≈ 62.1 µM) | 18.2 | 19.1 | 14.7 | 17.8 | 20.6 | 22.3 | 16.3 | 19.7 | 0 | 0 | 17.4 | 18.4 |
